# In patent publication US10648979B2, “Molecular probes for detecting gram-negative bacteria in vitro and in vivo” (priority 2014, dated 2020):
# Entries after “also recorded” stand apart in the source; their conditions may differ. Bridge positions count the residues as written; N and C are the ends. Square brackets hold non-standard residues; d marks the D form. Peptide text beside a SMILES is read from it. * marks the point of attachment. ξ: configuration not given here. NBD = O=[N+]([O-])c1ccc(*)c2nonc12; dDab = NCC[C@@H](N)C(=O)O; Dab = NCC[C@H](N)C(=O)O; AEEA = NCCOCCOCC(=O)O; ξDab = NCCC(N)C(=O)O
# Key:
# bacterial panel = experiment: Retention of labelling upon wash-off (PBS wash) in vitro by confocal; format: cell-based
# Source text: FIG. 15: NBD-UBIdend retains fluorescence when wash performed. A) The bacterial panel was imaged by laser scanning confocal microscopy in the continued presence of NBD-UBIdend (black) and following PBS wash (white).
# (§1) In the distal lung, there is likely to be significant and rapid dissipation of the probes immediately after delivery. Therefore, it is imperative that probe-bacterial labelling remains persistent under these conditions. […] As such, this resistance to ‘wash-off’ represents a surrogate indicator of probe-bacterial affinity which appears to be an absolute requirement for distal lung in situ labelling.
# We have obtained evidence that the wash-off properties of the probes, most likely related to affinity and/or the nature of subsequent insertion into the bacterial membrane, impact on whether or not they can be used to successfully image in the lung. The retention of labelling upon removal of probe solution was investigated in vitro by confocal. With all of the linear UBI variants labelling was lost completely upon wash-off. […] Bacteria were pre-labelled with these linear NBD-UBINle compounds and successful labelling was confirmed by imaging the bacterial suspension pre-instillation.
# [1] = room temperature
# [2] = tested on: panel of bacteria (P. aeruginosa, A. baumannii, S. maltophilia, K. pneumoniae, E. coli, H. influenzae, MRSA, MSSA, S. pneumoniae); experiment: In vitro labelling of bacteria by laser scanning confocal microscopy; format: cell-based
# Protocol: In vitro labelling was assessed on benchtop confocal in the presence of compound with bacteria and labelling was compared to NBD-UBINle which served as a reference control for bacterial labelling. […] For the ex vivo and in vivo ovine lung experiments each compound was assessed in a control lung segment (instilled with 2 ml PBS) or a bacterial segment (instilled with 2 ml of 2 optical density of bacteria). Following bacterial instillation, the compound was administered to the segment of interest and this was imaged by probe based confocal laser endomicroscopy (FCFM).
# [3] = water
# [4] = tested on: pre-labelled bacteria in ovine lung; experiment: Pre-labelled bacteria instilled into the ovine lung and imaged by FCFM
# Source text: FIG. 14: NBD-UBIdend and NBD-PMX are resistant to ‘wash off’ allowing detection of bacteria in the ovine lung. […] However, when bacteria pre-labelled with linear NBD-UBINle are instilled, no punctate signal is seen. Labelling was confirmed by imaging bacterial suspensions (left hand panels) before instillation into the lung and imaging by FCFM (right hand panels). Note the lower SNR for NBD-UBINle labelled bacteria in suspension. Representative images shown, n=3 for each experiment.
# as §1
# We have obtained evidence that the wash-off properties of the probes, most likely related to affinity and/or the nature of subsequent insertion into the bacterial membrane, impact on whether or not they can be used to successfully image in the lung. The retention of labelling upon removal of probe solution was investigated in vitro by confocal. With all of the linear UBI variants labelling was lost completely upon wash-off. […]
# human erythrocytes = experiment: Haemolysis assay; settings: up to 100 μM; 0.2% Triton-X = 100%
# Protocol: Positive control was 0.2% Triton-X and values corrected to represent 100% haemolysis for Triton-X.
# Erythrocytes were isolated from freshly drawn, anticoagulated human blood and resuspended to 20 vol % in PBS (pH 7.4). In a 96-well microtiter plate, 100 μl of erythrocyte suspension was added to 100 μl of NLLP solution in PBS (prepared by 1:2 serial dilutions) or 100 μl of PBS in the case of negative controls. One-hundred percent haemolysis wells contained 100 μl of red cell suspension with 100 μl of 0.2 vol % Triton X-100. The plate was incubated for 1 h at 37° C., and then each well was diluted with 150 μl of PBS. The plate was then centrifuged at 1,200 g for 15 min, 100 μl of the supernatant from each well was transferred to a fresh microtiter plate, and A350 was measured. Percentage of haemolysis was determined as (A−A0)/(Atotal−A0)×100, where A is the absorbance of the test well, A0 the absorbance of the negative controls, and Atotal the absorbance of 100% haemolysis wells, all at 350 nm on a Biotek plate reader.
# A549 cells = experiment: Labelling of A549 cells (confocal); format: cell-based, human
# Protocol: (§2) All compounds have undergone biological assessment.
# A549 cells were grown in Dulbecco's modified Eagle's medium (DMEM) supplemented with 10% fetal bovine serum (FBS), 2 mM L-glutamine, 100 units/mL penicillin G and 100 μg/mL streptomycin to 80% confluence. Cells were dispersed with Trypsin-EDTA and seeded onto glass coverslips or 8 well confocal imaging chambers and grown to confluence in the presence of DMEM.
# (§3) Bacteria were prepared and counterstained with Syto 82 nucleic acid stain (Invitrogen, Calif., USA) in a shaking heat block at 37° C. and 350 rpm for 20 minutes. They were co-incubated with the probe at required concentration in a sealed POC mini chamber, or 8 well confocal chamber. When required the glass coverslip for the POC chamber was coated in fibronectin (for neutrophil experiments) or poly-d-lysine (for bacteria and cell lines) and incubated with cells with one hour at 37° C. to allow adherence prior to bacterial innoculation. Analysis was with ImageJ. Briefly, the Syto channel was automatically thresholded (Huang) and an ROI generated from this. The mean fluorescence intensity on the probe channel within this ROI was quantified. Data presented represents the mean of three separate fields of view.
# human neutrophils = experiment: Labelling of isolated human neutrophils (confocal); format: cell-based
# Protocol: as §2, §3
# [5] = tested on: panel of bacteria (Gram-negative and Gram-positive); experiment: Flow cytometry of bacterial labelling; format: cell-based
# Protocol: FIG. 7: NBD-UBIdend labels bacteria selectively over mammalian cells in vitro: A) Example images of a clinically relevant bacterial panel with NBD-UBIdend (5 μM; green) counterstained with the fluorescent generic cellular DNA dye Syto-82 (red) imaged by laser scanning confocal microscopy. B) Quantification of bacterial panel labelling NBD-UBIdend 5 μM (optimal concentration) where every bacteria in the panel is brighter when compared with MSSA and NBD-UBINle 10 μM (optimal concentration) C) Flow cytometry data with unstained bacteria (red), NBD-UBINle 15 μM (blue) and NBD-UBIdend 5 μM labelled bacteria (orange). […] Representative images shown, n≥3 for all experiments.
# FIG. 8: NBD-PMX selectively labels Gram-negative bacteria in vitro. Example images of the bacterial panel with NBD-PMX imaged by laser scanning confocal microscopy. A) Bacterial panel with NBD-PMX 1 μM (green) and counterstain with syto-82 (red). […] C) Flow cytometric evaluation of bacterial labelling with NBD-PMX showing unstained bacteria (red) and NBD-PMX (blue) labelled bacteria. […] Representative images shown, n≥3 for all experiments.
# Bacteria were prepared and counterstained with Syto 82 nucleic acid stain (Invitrogen, Calif., USA) in a shaking heat block at 37° C. and 350 rpm for 20 minutes. […] This was diluted to 500 uL and analysed using BD FACS Calibur using FL-1 and FL-2 channels, with 10,000 events. […]
smiles,measurement,setting,value
CC(C)C[C@@H]1NC(=O)[C@@H](Cc2ccccc2)NC(=O)[C@@H](CCN)NC(=O)C(NC(=O)[C@H](CCN)NC(=O)[C@@H](NC(=O)COCCOCCNc2ccc([N+](=O)[O-])c3nonc23)[C@@H](C)O)CCNC(=O)[C@@H]([C@H](C)O)NC(=O)[C@H](CCN)NC(=O)[C@H](CCN)NC1=O (some centres unmarked) [NBD-PMX] ({NBD-AEEA}-T[Dab][ξDab][dDab][dF]L[Dab][Dab][dT]; lactam 3-C),retention of labelling upon wash-off,bacterial panel,resistant to wash-off
same,Stability,[1],> 1 week
same,labelling of Gram-positive bacteria,[2]; 1 μM,minimal/no labelling
same,fluorescence on Gram-negative versus Gram-positive bacteria,"[2]; 1 μM, p<0.05",significantly higher fluorescence on Gram-negative bacteria
same,bacterial labelling,[2]; Pseudomonas aeruginosa (PA) incubated with A549 cells,allows bacterial labelling
same,Solubility,[3],Fully soluble in water
same,detection of pre-labelled bacteria after instillation,[4],readily visualised
same,red cell haemolysis,human erythrocytes,no red cell haemolysis
same,labelling of A549 cells,A549 cells,retains selectivity of labeling over mammalian cells; also recorded: no labelling of human neutrophils or A549 cells
same,labelling of human neutrophils,human neutrophils,no labelling of human neutrophils or A549 cells
same,labelling of Gram-positive bacteria by flow cytometry,[5],No significant labelling of Gram-positive bacteria
